In US8461328B2, “Tricyclic heterocyclic compounds, compositions and methods of use thereof” (Genentech, Inc., priority 2010, dated 2013):

Columns and labels:
Assay type in all cases: biochemical
TYK2 = molecular target: T1, TYK2 (Homo sapiens, UniProt P29597); test: TYK2 inhibition (Table 4)
T1 construct: made in house; host or cells: SF9 insect cells (baculovirus)
T1 sequence (P29597 873-1187): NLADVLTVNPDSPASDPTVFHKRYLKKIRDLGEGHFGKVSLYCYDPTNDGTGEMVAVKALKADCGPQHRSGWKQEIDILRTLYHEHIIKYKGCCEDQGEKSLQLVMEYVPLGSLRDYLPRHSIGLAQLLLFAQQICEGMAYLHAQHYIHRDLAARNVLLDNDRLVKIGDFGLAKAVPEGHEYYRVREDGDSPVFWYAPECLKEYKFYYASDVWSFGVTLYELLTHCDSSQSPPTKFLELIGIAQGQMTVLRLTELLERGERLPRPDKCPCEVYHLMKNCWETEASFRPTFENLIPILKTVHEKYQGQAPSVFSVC

JAK2 = molecular target: T2, JAK2 (Homo sapiens, UniProt O60674); test: JAK2 inhibition (Table 4); details: read-out: JAK2 Ki
T2 construct: made in house; host or cells: SF9 insect cells (baculovirus)
T2 sequence (O60674 812-1132): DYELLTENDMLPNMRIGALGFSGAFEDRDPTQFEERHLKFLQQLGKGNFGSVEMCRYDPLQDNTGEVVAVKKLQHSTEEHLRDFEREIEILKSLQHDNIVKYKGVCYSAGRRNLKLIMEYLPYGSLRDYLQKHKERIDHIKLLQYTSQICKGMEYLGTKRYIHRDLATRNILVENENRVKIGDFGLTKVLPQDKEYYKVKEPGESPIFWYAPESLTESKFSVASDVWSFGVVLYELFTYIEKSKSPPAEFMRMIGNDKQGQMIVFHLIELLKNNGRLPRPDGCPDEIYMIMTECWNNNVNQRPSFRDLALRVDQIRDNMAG

JAK3 = molecular target: T3, JAK3 (Homo sapiens, UniProt P52333); test: JAK3 inhibition (Table 4); details: read-out: JAK3 Ki
T3 construct: made in house; host or cells: SF9 insect cells (baculovirus)
T3 sequence (P52333 783-1124): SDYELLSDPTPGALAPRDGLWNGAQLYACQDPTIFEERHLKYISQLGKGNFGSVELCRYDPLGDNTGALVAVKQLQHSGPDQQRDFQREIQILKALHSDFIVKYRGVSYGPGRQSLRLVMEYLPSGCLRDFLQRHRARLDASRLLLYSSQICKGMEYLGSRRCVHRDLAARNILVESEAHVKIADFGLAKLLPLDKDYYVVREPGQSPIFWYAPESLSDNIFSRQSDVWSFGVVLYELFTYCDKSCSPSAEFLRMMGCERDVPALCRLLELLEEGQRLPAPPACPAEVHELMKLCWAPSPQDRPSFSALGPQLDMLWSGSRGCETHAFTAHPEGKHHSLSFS

JAK1 = molecular target: T4, JAK1 (Homo sapiens, UniProt P23458); test: JAK1 inhibition (Table 4); details: read-out: JAK1 Ki
T4 construct: made in house; host or cells: SF9 insect cells (baculovirus)
T4 sequence (P23458 852-1154): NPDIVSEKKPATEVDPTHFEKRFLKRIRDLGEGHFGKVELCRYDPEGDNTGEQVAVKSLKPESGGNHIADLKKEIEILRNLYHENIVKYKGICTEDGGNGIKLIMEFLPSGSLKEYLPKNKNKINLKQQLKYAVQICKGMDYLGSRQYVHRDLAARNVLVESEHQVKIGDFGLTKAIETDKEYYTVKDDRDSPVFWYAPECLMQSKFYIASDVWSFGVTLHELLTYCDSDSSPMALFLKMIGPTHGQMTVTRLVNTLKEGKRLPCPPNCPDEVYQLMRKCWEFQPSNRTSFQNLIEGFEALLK

Ki (TYK2) | Ki (JAK2) | Ki (JAK3) | Ki (JAK1) | Compound
52.8 nM | 16.7 nM | 41.7 nM | 10.3 nM | Cc1nc2cnc3[nH]ccc3c2n1[C@H]1CCC[C@](C)(O)C1 [Example 886, (1S,3S)-1-Methyl-3-(2-methyl-6H-1,3,5,6-tetraaza-as-indacen-1-yl)-cyclohexanol]
79 nM | 23.9 nM | 193 nM | 11.1 nM | COCC(=O)NC1CCC(n2cnc3cnc4[nH]ccc4c32)CC1 (stereo not drawn) [Example 887, 2-Methoxy-N-[4-(6H-1,3,5,6-tetraaza-as-indacen-1-yl)-cyclohexyl]-acetamide]
40.9 nM | 17.7 nM | 14 nM | 12.8 nM | Cc1nc2cnc3[nH]ccc3c2n1[C@H]1CCC[C@@](C)(O)C1 [Example 888, (1R,3S)-1-Methyl-3-(2-methyl-6H-1,3,5,6-tetraaza-as-indacen-1-yl)-cyclohexanol]
96.5 nM | 337 nM | 335 nM | 36.2 nM | COC1CCCC(n2c(C)nc3cnc4[nH]ccc4c32)C1 (stereo not drawn) [Example 889, 1-(3-Methoxy-cyclohexyl)-2-methyl-1,6-dihydro-1,3,5,6-tetraaza-as-indacene]
133 nM | 38.1 nM | 36.9 nM | 37.6 nM | Cc1nc2cnc3[nH]ccc3c2n1[C@@H]1CCC[C@](C)(O)C1 [Example 890, (1S,3R)-1-Methyl-3-(2-methyl-6H-1,3,5,6-tetraaza-as-indacen-1-yl)-cyclohexanol]
165 nM | 543 nM | 240 nM | 65 nM | C[C@@H](O)c1nc2cnc3[nH]ccc3c2n1N1CCOCC1 [Example 891, (R)-1-(1-Morpholin-4-yl-1,6-dihydro-1,3,5,6-tetraaza-as-indacen-2-yl)-ethanol]
114 nM | 145 nM | 130 nM | 82.1 nM | Cc1nc2cnc3[nH]ccc3c2n1[C@@H]1CCC[C@@](C)(O)C1 [Example 892, (1R,3R)-1-Methyl-3-(2-methyl-6H-1,3,5,6-tetraaza-as-indacen-1-yl)-cyclohexanol]
9.49 nM | 49.2 nM | 60.7 nM | 4.9 nM | C[C@@H](O)c1nc2cnc3[nH]ccc3c2n1[C@H]1CCN(CCC#N)C1 [Example 893, 3-{(S)-3-[2-((R)-1-Hydroxy-ethyl)-6H-1,3,5,6-tetraaza-as-indacen-1-yl]-pyrrolidin-1-yl}-propionitrile]
99.1 nM | 19.1 nM | 3.34 nM | 1.27 nM | Cc1cc(CN2CCC(n3c(C(C)O)nc4cnc5[nH]ccc5c43)C(F)C2)on1 (stereo not drawn) [Example 895, 1-{1-[3-Fluoro-1-(3-methyl-isoxazol-5-ylmethyl)-piperidin-4-yl]-1,6-dihydro-1,3,5,6-tetraaza-as-indacen-2-yl}-ethanol]
56.7 nM | 21.4 nM | 6.89 nM | 1.72 nM | C[C@@H](O)c1nc2cnc3[nH]ccc3c2n1C1CCN(Cc2ccn[nH]2)CC1 [Example 896, (R)-1-{1-[1-(2H-Pyrazol-3-ylmethyl)-piperidin-4-yl]-1,6-dihydro-1,3,5,6-tetraaza-as-indacen-2-yl}-ethanol]
4.42 nM | 9.44 nM | 13.2 nM | 1.9 nM | OCc1nc2cnc3[nH]ccc3c2n1C1CCN(CC(F)F)CC1 [Example 897, {1-[1-(2,2-Difluoro-ethyl)-piperidin-4-yl]-1,6-dihydro-1,3,5,6-tetraaza-as-indacen-2-yl}-methanol]
96.7 nM | 54.4 nM | 12.9 nM | 2.09 nM | C[C@@H](O)c1nc2cnc3[nH]ccc3c2n1C1CCN(Cc2cnco2)CC1 [Example 898, (R)-1-[1-(1-Oxazol-5-ylmethyl-piperidin-4-yl)-1,6-dihydro-1,3,5,6-tetraaza-as-indacen-2-yl]-ethanol]
140 nM | 32.1 nM | 6.73 nM | 3.32 nM | Cc1cc(CN2CCC(n3c([C@@H](C)O)nc4cnc5[nH]ccc5c43)CC2)no1 [Example 899, (R)-1-{1-[1-(5-Methyl-isoxazol-3-ylmethyl)-piperidin-4-yl]-1,6-dihydro-1,3,5,6-tetraaza-as-indacen-2-yl}-ethanol]
2010 nM | 494 nM | 130 nM | 18 nM | CCn1ncc(CN2CCC(n3c([C@@H](C)O)nc4cnc5[nH]ccc5c43)CC2)c1C [Example 900, (R)-1-{1-[1-(1-Ethyl-5-methyl-1H-pyrazol-4-ylmethyl)-piperidin-4-yl]-1,6-dihydro-1,3,5,6-tetraaza-as-indacen-2-yl}-ethanol]
223 nM | 139 nM | 72.5 nM | 25 nM | Cc1nc2ncccn2c1CN1CCC(n2c([C@@H](C)O)nc3cnc4[nH]ccc4c32)CC1 [Example 901, (R)-1-{1-[1-(2-Methyl-imidazo[1,2-a]pyrimidin-3-ylmethyl)-piperidin-4-yl]-1,6-dihydro-1,3,5,6-tetraaza-as-indacen-2-yl}-ethanol]
2670 nM | 1230 nM | 478 nM | 25.5 nM | Cc1nc(CN2CCC(n3c([C@@H](C)O)nc4cnc5[nH]ccc5c43)CC2)c[nH]1 [Example 902, (R)-1-{1-[1-(2-Methyl-1H-imidazol-4-ylmethyl)-piperidin-4-yl]-1,6-dihydro-1,3,5,6-tetraaza-as-indacen-2-yl}-ethanol]
542 nM | 323 nM | 88.9 nM | 33.9 nM | Cc1nc(CN2CCC(n3c([C@@H](C)O)nc4cnc5[nH]ccc5c43)CC2)c(C)o1 [Example 903, (R)-1-{1-[1-(2,5-Dimethyl-oxazol-4-ylmethyl)-piperidin-4-yl]-1,6-dihydro-1,3,5,6-tetraaza-as-indacen-2-yl}-ethanol]
119 nM | 271 nM | 273 nM | 51.8 nM | CC(O)c1nc2cnc3[nH]ccc3c2n1C1CC2CCC1O2 (stereo not drawn) [Example 906, 1-[1-(7-Oxa-bicyclo[2.2.1]hept-2-yl)-1,6-dihydro-1,3,5,6-tetraaza-as-indacen-2-yl]-ethanol]
282 nM | 37.1 nM | 16.3 nM | 6.07 nM | CCN1CCC(n2c(CCNC(=O)OC)nc3cnc4[nH]ccc4c32)C(F)(F)C1 (stereo not drawn) [Example 908, {2-[1-(1-Ethyl-3,3-difluoro-piperidin-4-yl)-1,6-dihydro-1,3,5,6-tetraaza-as-indacen-2-yl]-ethyl}-carbamic acid methyl ester]
352 nM | 128 nM | 213 nM | 7.08 nM | CCN1CC[C@@H](n2c(CNS(C)(=O)=O)nc3cnc4[nH]ccc4c32)[C@@H](F)C1 [Example 909, N-[1-((3S,4R)-1-Ethyl-3-fluoro-piperidin-4-yl)-1,6-dihydro-1,3,5,6-tetraaza-as-indacen-2-ylmethyl]-methanesulfonamide]
213 nM | 212 nM | 323 nM | 50.2 nM | Cc1nc2cnc3[nH]ccc3c2n1C1CNCCOC1 (stereo not drawn) [Example 910, 2-Methyl-1-[1,4]oxazepan-6-yl-1,6-dihydro-1,3,5,6-tetraaza-as-indacene]
180 nM | 37.7 nM | 5.74 nM | 3.33 nM | Cc1cc(CN2CCC(n3c(C(C)O)nc4cnc5[nH]ccc5c43)C(F)C2)no1 (stereo not drawn) [Example 911, 1-{1-[3-Fluoro-1-(5-methyl-isoxazol-3-ylmethyl)-piperidin-4-yl]-1,6-dihydro-1,3,5,6-tetraaza-as-indacen-2-yl}-ethanol]
176 nM | 42.8 nM | 7.83 nM | 3.37 nM | Cc1noc(CN2CCC(n3c(C(C)O)nc4cnc5[nH]ccc5c43)C(F)C2)n1 (stereo not drawn) [Example 912, 1-{1-[3-Fluoro-1-(3-methyl-[1,2,4]oxadiazol-5-ylmethyl)-piperidin-4-yl]-1,6-dihydro-1,3,5,6-tetraaza-as-indacen-2-yl}-ethanol]
101 nM | 28.2 nM | 22.2 nM | 5.49 nM | CCN1CCC(n2c(CNS(C)(=O)=O)nc3cnc4[nH]ccc4c32)C(F)(F)C1 (stereo not drawn) [Example 915, N-[1-(1-Ethyl-3,3-difluoro-piperidin-4-yl)-1,6-dihydro-1,3,5,6-tetraaza-as-indacen-2-ylmethyl]-methanesulfonamide]
78.4 nM | 52.8 nM | 63.5 nM | 6.73 nM | C[C@@H](O)c1nc2cnc3[nH]ccc3c2n1C1CCN(CC(F)F)CC1 [Example 916, (R)-1-{1-[1-(2,2-Difluoro-ethyl)-piperidin-4-yl]-1,6-dihydro-1,3,5,6-tetraaza-as-indacen-2-yl}-ethanol]
183 nM | 93 nM | 86.5 nM | 13 nM | CC(=O)NCc1nc2cnc3[nH]ccc3c2n1C1CCN(CC(F)(F)F)CC1 [Example 920, N-{1-[1-(2,2,2-Trifluoro-ethyl)-piperidin-4-yl]-1,6-dihydro-1,3,5,6-tetraaza-as-indacen-2-ylmethyl}-acetamide]

Compound | Ki (TYK2) | Ki (JAK2) | Ki (JAK3) | Ki (JAK1)
CC(O)c1nc2cnc3[nH]ccc3c2n1C1CC2CCC(C1)N2 (stereo not drawn) [Example 919, 1-[1-(8-Aza-bicyclo[3.2.1]oct-3-yl)-1,6-dihydro-1,3,5,6-tetraaza-as-indacen-2-yl]-ethanol] | 264 nM | 437 nM | 476 nM | 10.6 nM
